Test results taken from patent US11077145B2, “Method for mass producing proteins in mesenchymal stem cells” (STEMMEDICARE CO., LTD., priority 2015, dated 2021).
“And” between values parts separate entries of the source, which are not always exact repeats. Equal entries are not always repeated. Marks after values point to notes of the source that are not given here.

Assays:
C57BL/6 mice [1] = experiment: Hair growth suppression model (dexamethasone), hair growth score and number of hair follicles; type: in vivo, mouse; design: hair growth score, Average: scale not given here
Protocol: A comparative test was performed to examine the hair growth effect of the mesenchymal stem cell conditioned medium of the present invention using C57BL/6 mice. After depilating the test animals, the depilatory was treated to induce them from the telogen (resting phase) to the anagen (growing phase), and then to suppress the growth of hair follicles, 0.1% of dexamethanone was transdermally administered for 5 days from 8 days after depilation repeatedly. Next, in order to compare the growth promoting effect of the test substance containing 3% of the mesenchymal stem cell conditioned medium of the present invention, the growth promoting effects were compared with the test substance by transdermally administered repeatedly of G1 (distilled water control), G2 (placebo control), G3 (test substance) and G4 (positive control-minoxidil 5%) for 8 days.

C57BL/6 mice [2] = experiment: Anagen hair model, hair growth score and number of hair follicles; type: in vivo, mouse; design: hair growth score, Average: scale not given here
Protocol: A comparative test was performed to investigate the effect of hair growth promotion of the mesenchymal stem cell conditioned medium of the present invention using C57BL/6 mice. After induction of the hair follicles of the test animal from the telogen (resting phase) to the […] (growing phase) and depilatione, in order to compare the growth promoting effect of the test substance containing 3% of the mesenchymal stem cell conditioned medium of the present invention, G1 (distilled water control), G2 (placebo control), G3 (test substance) and G4 (positive control-minoxidil 5%) were transdermally administered repeatedly for 14 days respectively, and the hair growth promoting effects were compared with the test substance.

[3] = individual animal average of 3 areas
[4] = individual animal, female, 8th day of administration
[5] = individual animal, histopathological examination
[6] = individual animal, female, 13th day

## Nc1cc(N2CCCCC2)nc(N)[n+]1[O-] [G4, Minoxidil]
C57BL/6 mice [1]; group average, transdermal for 8 days
  number of hair follicles, Total Average: 66.37
C57BL/6 mice [1]; group average, transdermal for 8 days, 8th day
  hair growth score, Total Average: 2.68 points
C57BL/6 mice [1]; [3]
  number of hair follicles, Average: 87.67 and 92.33 and 71.00 and 36.33 and 108.33 and 61.33 and 45.33 and 29.67 and 36.00 and 95.67
C57BL/6 mice [1]; individual animal average, 8th day of administration
  hair growth score, Average: 3.00 (3×) and 1.75 (2×) and 2.25 and 2.75 (2×) and 2.50 and 4.00
C57BL/6 mice [1]; [4]
  hair growth score, Score 1st: 2 (40~59% (2)) (6×) and 1 (20~39% (1)) (2×) and 3 (60~79% (3)) and 4 (80~100% (4))
  hair growth score, Score 2nd: 2 (40~59% (2)) (7×) and 1 (20~39% (1)) (2×) and 4 (80~100% (4))
  hair growth score, Score 3rd: 4 (80~100% (4)) (4×) and 2 (40~59% (2)) (3×) and 3 (60~79% (3)) (2×) and 1 (20~39% (1))
  hair growth score, Score 4th: 4 (80~100% (4)) (7×) and 3 (60~79% (3)) (3×)
C57BL/6 mice [1]; [5]
  number of hair follicles, Area 1: 70 and 97 and 66 and 53 and 114 and 65 and 78 and 46 and 37 and 95
  number of hair follicles, Area 2: 96 and 87 (2×) and 65 and 37 (2×) and 108 and 52 and 19 and 48
  number of hair follicles, Area 3: 97 and 93 and 82 and 19 and 103 and 67 and 21 and 24 and 23 and 105
C57BL/6 mice [2]; 15th day, female C57BL/6 mice, average of the four scores per animal
  hair growth score, Average: 4 (4×) and 3.75 (3×) and 3.5 (3×)
C57BL/6 mice [2]; 15th day, female C57BL/6 mice, group average, transdermal administration for 14 days
  hair growth score, Total Average: 3.78**
C57BL/6 mice [2]; 15th day, female C57BL/6 mice, individual animal, 1st score
  hair growth score, Score 1st: 4 (80~100% (4)) (9×) and 3 (60~79% (3))
C57BL/6 mice [2]; 15th day, female C57BL/6 mice, individual animal, 2nd score
  hair growth score, Score 2nd: 4 (80~100% (4)) (5×) and 3 (60~79% (3)) (5×)
C57BL/6 mice [2]; 15th day, female C57BL/6 mice, individual animal, 3rd score
  hair growth score, Score 3rd: 4 (80~100% (4))
C57BL/6 mice [2]; 15th day, female C57BL/6 mice, individual animal, 4th score
  hair growth score, Score 4th: 4 (80~100% (4)) (7×) and 3 (60~79% (3)) (3×)
C57BL/6 mice [2]; group average, 13th day
  hair growth score, Total Average: 3.27 point
C57BL/6 mice [2]; group average, 15th day
  hair growth score, Total Average: 3.78 point
C57BL/6 mice [2]; group average, transdermal for 14 days
  number of hair follicles, Total Average: 104.70
C57BL/6 mice [2]; [3]
  number of hair follicles, Average: 191.33 and 107.67 and 69.00 and 149.67 and 54.67 and 82.67 and 72.33 and 130.33 and 138.67 and 50.67
C57BL/6 mice [2]; individual animal average, 13th day
  hair growth score, Average: 3.67 (2×) and 4.00 (2×) and 3.33 (2×) and 3.00 and 2.33 and 2.67 (2×)
C57BL/6 mice [2]; [6]
  hair growth score, Score 1st: 3 (60~79% (3)) (4×) and 4 (80~100% (4)) (2×) and 2 (40~59% (2)) (4×)
  hair growth score, Score 2nd: 3 (60~79% (3)) (5×) and 4 (80~100% (4)) (2×) and 1 (20~39% (1)) (2×) and 2 (40~59% (2))
  hair growth score, Score 3rd: 4 (80~100% (4)) (6×) and 3 (60~79% (3)) (4×)
  hair growth score, Score 4th: 4 (80~100% (4)) (5×) and 3 (60~79% (3)) (5×)
C57BL/6 mice [2]; [5]
  number of hair follicles, Area 1: 232 and 48 and 92 and 135 and 45 and 90 and 71 and 149 and 121 and 53
  number of hair follicles, Area 2: 209 and 135 and 55 and 155 and 50 and 94 and 79 and 126 and 164 and 41
  number of hair follicles, Area 3: 133 and 140 and 60 and 159 and 69 and 64 and 67 and 116 and 131 and 58
